One assay deals with T1, human eIF4E protein (Homo sapiens, UniProt P06730).
T1 construct: purchased Novus NBP-45314
Put plainly: Biochemical competitive binding assay (TR-FRET competition, EDA-m7GDP-ATTO-647N probe). To be noted: read-out: hEIF4E TR-FRET IC50. The gist of the method: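 His-tagged human eIF4E (4 nM) was preincubated with Eu-anti-His antibody (2.5 nM) and added to compound (11-point, 4-fold dilutions) for 15 min. Then 5 nM EDA-m7GDP-ATTO-647N was added for 15 min, in HEPES pH 7.5, 100 mM KCl. The 665/620 TR-FRET ratio was normalized to controls, and IC50 was taken from 4-parameter fits.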

The test system of assay [1] is cap-dependent translation in Flp-In-293 reporter cells. Put plainly: Cellular cap-dependent translation inhibition assay (dual luciferase assay, DLA; Fluc/Rluc ratio, 24 hours). The format is cell-based. To be noted: dual luciferase assay, Flp-In-293 reporter cells, 24 hours, Fluc/Rluc ratio, read-out: DLA 205 IC50.
Assay [2] has as its system COLO 205 colorectal tumor cells. Put plainly: Tumor cell viability inhibition assay (CellTiter-Glo 2.0, 72 hours). To be noted: COLO 205 cell viability. The format is cell-based. The gist of the method: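 COLO 205 cells (1500/well, RPMI-1640 + 10% FBS) exposed for 72 h to an 11-point, 4-fold dilution series; cellular ATP read by CellTiter-Glo 2.0 luminescence. Data normalized to DMSO and maximum-inhibition controls; IC50 from 4-parameter curve fit.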

Like-named read-outs stand apart in the source and are kept apart here.

T1 sequence (P06730 whole entry): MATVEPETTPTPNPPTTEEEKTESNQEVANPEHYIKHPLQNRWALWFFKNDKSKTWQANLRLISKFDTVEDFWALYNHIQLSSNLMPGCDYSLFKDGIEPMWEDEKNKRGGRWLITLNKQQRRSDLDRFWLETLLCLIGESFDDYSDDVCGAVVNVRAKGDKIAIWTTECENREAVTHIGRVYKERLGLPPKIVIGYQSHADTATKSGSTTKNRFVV

For the compound `Cc1cc(-c2cc(Cl)ccc2OCCn2c(C)nc3c(c2=O)CC(N(C)C(=O)C2CCN(CC(F)(F)F)CC2)CC3)c2scc(C(=O)NS(C)(=O)=O)c2n1` (stereo not drawn) [Compound 82], the IC50 on human eIF4E protein is less than 100 nM; in assay [1] (Homo sapiens, Flp-In-293, 24 h) it was 1000 to 5000 nM; in assay [2] (Homo sapiens, COLO 205, 72 h), more than 20000 nM.

On to `Cc1cc(-c2cc(Cl)ccc2OCCn2c(C)nc3c(c2=O)CC(N(C)C2CC2)CC3)c2sccc2n1` (single isomer, unassigned) [Compound 307], for which the figures for the IC50 (on human eIF4E protein; in assay [1]; in assay [2]) were 100 to 500 nM, 1000 to 5000 nM and 5000 to 20000 nM, respectively.

Regarding `Cc1cc(-c2cc(Cl)ccc2OCCn2c(C)nc3c(c2=O)CC(N(C)Cc2ccncc2)CC3)c2scc(C(=O)NS(C)(=O)=O)c2n1` (stereo not drawn) [Compound 68], the IC50 was less than 100 nM on human eIF4E protein; less than 1000 nM in assay [1] (Homo sapiens, Flp-In-293, 24 h); less than 5000 nM in assay [2] (Homo sapiens, COLO 205, 72 h).

For `Cc1cc(-c2cc(Cl)ccc2OCCn2c(C)nc3c(c2=O)CC(N(C)CC(F)F)CC3)c2scc(C(=O)NS(C)(=O)=O)c2n1` (stereo not drawn) [Compound 65], the IC50 is less than 100 nM at human eIF4E protein; less than 1000 nM in assay [1] (Homo sapiens, Flp-In-293, 24 h); less than 5000 nM in assay [2] (Homo sapiens, COLO 205, 72 h).

Turning to `Cc1nc2c(c(=O)n1CC#Cc1ccc(Cl)cc1-c1ccnc3c(C(=O)NS(C)(=O)=O)csc13)CC(N(C)C1CC1)CC2` (stereo not drawn) [Compound 271], the IC50 on human eIF4E protein was less than 100 nM; in assay [1] (Homo sapiens, Flp-In-293, 24 h), less than 1000 nM; in assay [2] (Homo sapiens, COLO 205, 72 h), less than 5000 nM.

Consider `Cc1cc(-c2cc(Cl)ccc2OCCn2c(C)nc3c(c2=O)CC(N(C)C2CC2)CC3)c2scc(C(=O)O)c2n1` (single isomer, unassigned) [Compound 335], for which the IC50 on human eIF4E protein is less than 100 nM; in assay [1] (Homo sapiens, Flp-In-293, 24 h), less than 1000 nM; in assay [2] (Homo sapiens, COLO 205, 72 h), less than 5000 nM.

As for `COc1cc(C2CCN([C@@H]3CCc4nc(C)n(CCOc5ccc(Cl)cc5-c5cc(C)nc6c(C(=O)O)csc56)c(=O)c4C3)CC2)ccn1` (single isomer, unassigned) [Compound 575], the 50% inhibitory concentration (IC50) is less than 100 nM on human eIF4E protein and less than 5000 nM in assay [2] (Homo sapiens, COLO 205, 72 h).

As to `Cc1cc(-c2cc(Cl)ccc2C#CCn2c(C)nc3c(c2=O)CC(C)(N2CCCC4(C2)CC4(F)F)CC3)c2scc(C(=O)O)c2n1` (single isomer, unassigned) [Compound 612], the values for the half-inhibitory concentration (IC50) (on human eIF4E protein; in assay [2]) were 100 to 500 nM and 5000 to 20000 nM, respectively.

In the case of `Cc1cc(-c2cc(Cl)ccc2OCCn2c(C)nc3c(c2=O)C[C@H](N2CCC[C@H](C(F)F)C2)CC3)c2scc(C(=O)O)c2n1` (single isomer, unassigned) [Compound 117], the IC50 at human eIF4E protein was less than 100 nM; in assay [2] (Homo sapiens, COLO 205, 72 h), less than 5000 nM.

In the case of `COC1CCN(C2CCc3nc(C)n(CC#Cc4ccc(Cl)cc4-c4ccnc5c(C(=O)O)csc45)c(=O)c3C2)CC1` (single isomer, unassigned) [Compound 410], the figures for the IC50 (on human eIF4E protein; in assay [2]) were less than 100 nM and 5000 to 20000 nM, respectively.

Consider `Cc1cc(-c2cc(Cl)ccc2OCCn2c(C)nc3c(c2=O)C[C@@H](N2CCCC[C@H]2c2nccs2)CC3)c2scc(C(=O)O)c2n1` (single isomer, unassigned) [Compound 548], for which the IC50 at human eIF4E protein is 100 to 500 nM; in assay [2] (Homo sapiens, COLO 205, 72 h), more than 20000 nM.

Consider `Cc1cc(-c2cc(Cl)ccc2OCCn2c(C)nc3c(c2=O)C[C@H](N2CCC(c4noc5ccc(F)cc45)CC2)CC3)c2scc(C(=O)O)c2n1` (single isomer, unassigned) [Compound 488], for which the IC50 at human eIF4E protein is less than 100 nM; in assay [2] (Homo sapiens, COLO 205, 72 h), less than 5000 nM.

For the compound `Cc1cc(-c2cc(Cl)ccc2OCCn2c(C)nc3c(c2=O)CC(CN)(N2CCC(OC(F)(F)F)CC2)CC3)c2scc(C(=O)O)c2n1` (single isomer, unassigned) [Compound 623], the IC50 on human eIF4E protein is 100 to 500 nM; in assay [2], more than 20000 nM.

Take `Cc1cc(-c2cc(Cl)ccc2OCCn2c(C)nc3c(c2=O)C[C@@H](N2CCC[C@H](C(F)F)C2)CC3)c2scc(C(=O)O)c2n1` (single isomer, unassigned) [Compound 101]: the IC50 was less than 100 nM on human eIF4E protein and less than 5000 nM in assay [2] (Homo sapiens, COLO 205, 72 h).

For `Cc1cc(-c2cc(Cl)ccc2OCCn2c(C)nc3c(c2=O)C[C@@H](N2CCC[C@@H](c4ncccc4F)C2)CC3)c2scc(C(=O)O)c2n1` (single isomer, unassigned) [Compound 466], the IC50 on human eIF4E protein was less than 100 nM; in assay [2] (Homo sapiens, COLO 205, 72 h), less than 5000 nM.

Turning to `COC1CCN(C2(C)CCc3nc(C)n(CCOc4ccc(Cl)cc4-c4cc(C)nc5c(C(=O)O)csc45)c(=O)c3C2)CC1(C)C` (single isomer, unassigned) [Compound 565], the IC50 on human eIF4E protein was less than 100 nM; in assay [2] it was less than 5000 nM.

`Cc1cc(-c2cc(Cl)ccc2OCCn2c(C)nc3c(c2=O)CC(N(C)C24CC5CC(CC(C5)C2)C4)CC3)c2scc(C(=O)O)c2n1` (single isomer, unassigned) [Compound 468]: the IC50 at human eIF4E protein was less than 100 nM; in assay [2] (Homo sapiens, COLO 205, 72 h) it was less than 5000 nM.

Consider `Cc1cc(-c2cc(Cl)ccc2OCCn2c(C)nc3c(c2=O)C[C@@H](N2CCC[C@@]4(CN(CC(F)(F)F)CC4(F)F)C2)CC3)c2scc(C(=O)O)c2n1` (single isomer, unassigned) [Compound 514], for which the IC50 on human eIF4E protein was 500 to 5000 nM; in assay [2] (Homo sapiens, COLO 205, 72 h) it was more than 20000 nM.

`Cc1cc(-c2cc(Cl)ccc2OCCn2c(C)nc3c(c2=O)C[C@@H](N2CCC(Oc4ccc(F)cc4F)CC2)CC3)c2scc(C(=O)O)c2n1` (single isomer, unassigned) [Compound 596]: the IC50 at human eIF4E protein was less than 100 nM; in assay [2] (Homo sapiens, COLO 205, 72 h) it was less than 5000 nM.

For the compound `Cc1cc(-c2cc(Cl)ccc2OCCn2c(C)nc3c(c2=O)C[C@H](N2CCC(c4nc(C(F)(F)F)cs4)CC2)CC3)c2scc(C(=O)O)c2n1` (single isomer, unassigned) [Compound 577], the IC50 was less than 100 nM on human eIF4E protein and less than 5000 nM in assay [2] (Homo sapiens, COLO 205, 72 h).

On to `[2H]C([2H])([2H])N(Cc1ccnc(OC)c1)C1CCc2nc(C)n(CCOc3ccc(Cl)cc3-c3cc(C)nc4c(C(=O)O)csc34)c(=O)c2C1` (stereo not drawn) [Compound 125, 7-(5-chloro-2-(2-(6-(((2-methoxypyridin-4-yl)methyl)(methyl-d3)amino)-2-methyl-4-oxo-5,6,7,8-tetrahydroquinazolin-3(4H)-yl)ethoxy)phenyl)-5-methylthieno[3,2-b]pyridine-3-carboxylic acid], for which the IC50 is less than 100 nM on human eIF4E protein and less than 5000 nM in assay [2] (Homo sapiens, COLO 205, 72 h).

Consider `Cc1cc(-c2cc(Cl)c(=O)[nH]c2OCCn2c(C)nc3c(c2=O)CC(N(C)CC2CC(F)(F)C2)CC3)c2scc(C(=O)O)c2n1` (single isomer, unassigned) [Compound 238], for which the IC50 on human eIF4E protein is 500 to 5000 nM; in assay [2] it was more than 20000 nM.

In the case of `Cc1cc(-c2cc(Cl)ccc2OCCn2c(C)nc3c(c2=O)C[C@H](N2C[C@@H]4CC[C@H]2CC4OC(F)(F)F)CC3)c2scc(C(=O)O)c2n1` (single isomer, unassigned) [Compound 501], the IC50 at human eIF4E protein was less than 100 nM; in assay [2] (Homo sapiens, COLO 205, 72 h) it was less than 5000 nM.

`Cc1cc(-c2cc(Cl)ccc2OCCn2c(C)nc3c(c2=O)C[C@@H](N2C[C@H]4CC[C@@H]2CC4OC(F)(F)F)CC32CC2)c2scc(C(=O)O)c2n1` (single isomer, unassigned) [Compound 607]: the IC50 at human eIF4E protein was less than 100 nM; in assay [2] (Homo sapiens, COLO 205, 72 h), less than 5000 nM.

In the case of `Cc1cc(-c2cc(Cl)ccc2OCCn2c(C)nc3c(c2=O)CC(C)(N2CCC4(CC2)CC4(F)F)CC3)c2scc(C(=O)O)c2n1` (single isomer, unassigned) [Compound 557], the IC50 at human eIF4E protein is less than 100 nM; in assay [2], less than 5000 nM.

For the compound `[2H]C1(N2CCC(OC(F)(F)F)CC2)CCc2nc(C)n(CCOc3ccc(Cl)cc3-c3cc(C)nc4c(C(=O)O)csc34)c(=O)c2C1` (single isomer, unassigned) [Compound 362], the IC50 is less than 100 nM at human eIF4E protein and less than 5000 nM in assay [2] (Homo sapiens, COLO 205, 72 h).

Turning to `Cc1cc(-c2cc(Cl)ccc2OCCn2c(C)nc3c(c2=O)C[C@@H](N2Cc4cc(F)c(F)cc4C2)CC3)c2scc(C(=O)O)c2n1` (single isomer, unassigned) [Compound 533], the IC50 at human eIF4E protein was less than 100 nM; in assay [2] (Homo sapiens, COLO 205, 72 h), less than 5000 nM.

On to `Cc1cc(-c2cc(Cl)ccc2OCCn2c(C)nc3c(c2=O)C[C@H](N2CCC[C@]4(C2)CC4(F)F)CC3)c2scc(C(=O)O)c2n1` (single isomer, unassigned) [Compound 137], for which the IC50 at human eIF4E protein is less than 100 nM; in assay [2] (Homo sapiens, COLO 205, 72 h), less than 5000 nM.

For the compound `Cc1cc(-c2cc(Cl)ccc2OCCn2c(C)nc3c(c2=O)C[C@@H](N(C)CC2CC(F)(F)C2)CC32CC2)c2scc(C(=O)O)c2n1` (single isomer, unassigned) [Compound 569], the half-maximal inhibitory concentration (IC50) was less than 100 nM on human eIF4E protein and less than 5000 nM in assay [2] (Homo sapiens, COLO 205, 72 h).

`Cc1cc(-c2cc(Cl)ccc2OCCn2c(C)nc3c(c2=O)C[C@@H](N2CCC[C@@H](OC(F)(F)F)C2)CC3)c2scc(C(=O)O)c2n1` (single isomer, unassigned) [Compound 458]: the IC50 on human eIF4E protein is less than 100 nM; in assay [2] (Homo sapiens, COLO 205, 72 h), less than 5000 nM.

Consider `Cc1cc(-c2cc(Cl)ccc2OCCn2c(C)nc3c(c2=O)C[C@@H](N2CC[C@@H](OC(F)(F)F)C(C)(C)C2)CC3)c2scc(C(=O)O)c2n1` (single isomer, unassigned) [Compound 393], for which the IC50 at human eIF4E protein is less than 100 nM; in assay [2] (Homo sapiens, COLO 205, 72 h), 5000 to 20000 nM.

With `Cc1csc([C@H]2CCCN([C@@H]3CCc4nc(C)n(CCOc5ccc(Cl)cc5-c5cc(C)nc6c(C(=O)O)csc56)c(=O)c4C3)C2)n1` (single isomer, unassigned) [Compound 483], the IC50 on human eIF4E protein was less than 100 nM; in assay [2] (Homo sapiens, COLO 205, 72 h), less than 5000 nM.

As to `Cc1cc(-c2cc(Cl)ccc2OCCn2c(C)nc3c(c2=O)C[C@H](N2CCCC(F)(F)CC2)CC3)c2scc(C(=O)O)c2n1` (single isomer, unassigned) [Compound 401], the IC50 on human eIF4E protein is less than 100 nM; in assay [2] (Homo sapiens, COLO 205, 72 h), less than 5000 nM.

(Values after US20240246918A1, “COMPOUNDS AND COMPOSITIONS AS EIF4E INHIBITORS AND THE USES THEREOF” (Ribometrix, Inc., priority 2022, published 2024).)
